Columns and labels:
Assay type in all cases: in vivo, Zebrafish (Danio rerio)
larval zebrafish [1] = assay: Thermal preference assay (28.5° C. vs 37.5° C.), non-sensitized; conditions: for effect of co-applied drug on swimming velocity of AS1-treated fish: 28.5 and 37.5° C. zones; for effect of co-applied drug on swimming velocity of AS1-treated fish / effect of co-applied drug on AS1-induced attraction to noxious heat: drug + 5 μM AS1; for effect of co-applied drug on AS1-induced attraction to noxious heat / temperature choice, drug alone: 28.5° C. vs 37.5° C.; for temperature choice, drug alone: without AS1
Description: Thermal preference assay. […] Once an entire plate was loaded with fish, the appropriate incubation solution was added. […] Following incubation in all experiments, the choice testing plate was transported to a dual solid-state heat/cool plate (AHP-1200° C. P; Teca) and centered such that half of each arena was positioned over each side of the heat/cool plate. […] Locomotor behavior was recorded using a Canon high-definition video camcorder suspended at a fixed position above the choice testing plate. Each trial was four minutes in duration.
For single-incubation assays (e.g. testing single chemicals), larval zebrafish were caught in 100 μL E2 media and 100 μL of the control (2% DMSO) or test chemical at 2× concentration was added to each well to achieve the final desired concentration. […] The final DMSO concentration in all solutions was 1%.

larval zebrafish [2] = assay: Light/dark preference (phototaxis) assay; conditions: for effect of co-applied drug on AS1-induced preference for the dark: drug + 2.5 μM AS1; for light/dark preference, drug alone: without AS1
Description: Following this, whether the effects of AS1 were restricted to somatosensation or were generalizable to other aversive stimuli were tested. Thus, the effects of AS1 on light/dark preference were tested. Zebrafish larvae prefer white light environments to dark environments and this preference is inhibited by anxiolytics, analagous to studies in rodents (Lau et al., Proc. Natl. Acad. Sci. U.S.A 2011; 108:2581-2586; Burgess et al., Curr. Biol. 2010; 20:381-386). To measure light/dark preference, larval zebrafish were placed in a square arena and given the choice between a bright white light and total darkness, and the number of larvae on each side was quantified at 30 second intervals. Five 4-minute trials were performed, where the light and dark sides of the arena were reversed between trials. […] Given the precise control over stimulus luminosity in this assay, the effects of altering the intensity of the dark stimulus were explored next. In this gradient version of the phototaxis assay, larval zebrafish were given the choice between a bright white environment and one of six potential shades of darkness, ranging from light gray to solid black. […] This implies that the valence of non-painful noxious stimuli is precisely encoded in an intensity-dependent manner, and that AS1 exerts its effects in proportion to the intensity of the stimulus.
Light/dark preference (phototaxis) assay. In the light/dark preference assay, randomly-selected 6 dpf larval zebrafish (N of 30 to 40) were carefully pipetted onto a 10 cm square petri dish using a 10 mL pipette pump equipped with a glass wide-bored Pasteur pipet. As much E2 media as possible was carefully removed using the same pipet. For single incubation experiments, 30 mL of 1× solutions of the control or test chemical was added to each petri dish, and fish were incubated for 10 minutes at 28.5° C. For double incubation experiments, 15 mL of 1× solutions containing control (DMSO) or test chemicals was added to the larvae-containing petri dish. Following a ten-minute incubation period, 15 mL of the second incubation solution (1× control or test chemical +/−2× AS1) was added to the petri dish, and the fish were incubated for a second ten minute block. The final concentration of DMSO in all solutions was 1%. In all double-incubation experiments, the final concentration of AS1 was 2.5 μM. These petri dishes were then positioned over a horizontally-oriented computer monitor displaying a PowerPoint presentation. For standard light/dark preference assays, a blank white slide was initially presented for one minute, after which the presentation would automatically advance to a slide in which half of the display was black. The petri dish with larvae was positioned such that exactly half was directly over the dark side, and the other half was directly over the light side. After four minutes, the presentation automatically advanced to a slide in which the black and white halves switched places. A total of five four-minute trials, with the dark/light halves automatically switching position between trials, were recorded. For the gradient phototaxis assay, experiments were performed identically, except that the “dark” half of the powerpoint presentation was one of six shades of gray.
In all experiments, an initial still frame of video was taken during the minute where the blank slide was presented in order to quantify the total number of fish in the experiment. Following this, still frames were taken at 30 second intervals for each trial ([…]), and the number of fish present in the light half of the arena were counted. To generate the graphs that looked at swimming patterns over time in a trial (e.g., FIG. 3D), the average percentage of fish in the light at each time point (T=0, T=30, etc.) was calculated across all five trials. […]

larval zebrafish [3] = assay: AITC aversion assay (chemical attraction/aversion, AITC-infused agarose); conditions: AITC 100 mM in agarose; for effect of co-applied drug on AS1-induced attraction to AITC: drug + AS1 (5 μM; 2.5 μM with SKF and sumanirole); for AITC aversion, drug alone: without AS1
Source text: Whether the effects of AS1 extended beyond noxious temperature sensation or could also impact other somatosensory modalities was next explored. To accomplish this, a chemical attraction/aversion assay where a thin layer of agarose was deposited along the edges of a square arena (Jordi et al., Sci. Adv. 2018; 4:1-15) were adapted. Along one wall, the agarose contained the chemical to be tested, while the other three walls were lined with control agarose. It was anticipated that a chemical gradient would be established as chemical diffused from the agarose into the surrounding water. Larvae were pre-incubated in either vehicle or AS1 and then added to the arena and the distance of each larva from the chemical-infused agarose was measured. In control experiments where all four walls of the arena were lined with agarose only, AS1 and vehicle-treated larvae were dispersed evenly throughout the arena (FIG. 3). […] When the nociceptive chemical AITC (100 mM, 10,000× maximal effective dose) was tested, vehicle-treated larvae swam away from the AITC source.
(§1) Chemical attraction/aversion assays. The agarose attraction/aversion assay was adapted from previously described experiments (Jordi et al., Sci. Adv. 2018; 4:1-15). For the AITC aversion assay, AITC and DMSO were added to molten 0.8% agarose to achieve a final concentration of 100 mM AITC and 2% DMSO. For the AS1 attraction/aversion assay, AS1 and DMSO were added to 0.8% molten agar to achieve final concentrations of 50 mM and 2%, respectively. To construct the test chambers, the lids of 10×10 cm square petri dishes (insert cat #and company) were lined on four sides with either the test (chemical-containing) or plain agarose (300 μL per side) and allowed to solidify. For all experiments, 30-40 randomly selected 6 dpf zebrafish were caught with a 10 mL pipette pump (Bel-Air Products, cat #: 13683C) equipped with a glass wide-bored Pasteur pipet (Fisher Scientific, cat #: 22-037-540) and deposited into a standard 10 cm diameter petri dish (Fisher Scientific, cat #: 07-202-031). As much E2 media as possible was carefully removed using the same pipette. For single incubation experiments, 30 mL of 1× solutions of the control or test chemical was added to each petri dish, and fish were incubated for 10 minutes at 28.5° C. For double incubation experiments, 15 mL of 1× solutions containing control (DMSO) or test chemicals was added to the larvae-containing petri dish. Following a ten minute incubation, 15 mL of the second incubation solution (1× control or test chemical +/−2× AS1) was added to the petri dish, and the fish were incubated for a second ten minute block. The final concentration of DMSO in all solutions was 1%. In all double-incubation experiments, the final concentration of AS1 was 5 μM unless otherwise noted. After completion of the last incubation period, the contents of each petri dish were poured into separate agarose-lined square dishes. Swimming behavior was immediately recorded for 20 minutes using the same high-definition camcorder in the thermal preference assays.

larval zebrafish [4] = assay: Chemical attraction/aversion assay with the test chemical itself as source (inherent attractiveness); conditions: 2 mL in trough of 3D-printed arena; SKF 25 μM; AS1 10 μM-1 mM
Source text: To confirm that AS1 itself was not attractive, the chemical attraction/aversion assay was used. […] Since the assay was modified to accommodate the inability to dissolve SKF into agarose at high concentrations (see Materials and Methods), the inherent attractiveness of AS1 was re-tested using this new format.
as §1, with “Following a ten minute incubation, 15 mL of the second incubation solution (1× control or test chemical +/−2× AS1) was added to the petri dish, and the fish were incubated for a second ten minute block. The final concentration of DMSO in all solutions was 1%. In all double-incubation experiments, the final concentration of AS1 was 5 μM unless otherwise noted. After completion of the last incubation period, the contents of each petri dish were poured into separate agarose-lined square dishes.” left out
For the SKF attraction/aversion assay, custom 10 cm×10 cm plates using clear resin (Formlabs, cat #: RS-F2-GPCL-04) and a Form 3+3D printer (Formlabs, cat #: PKG-F3-WSVC-BASIC) were designed. […] Swimming behavior was then recorded for 20 minutes. […]

| Compound | effect of co-applied drug on swimming velocity of AS1-treated fish (larval zebrafish [1]) | effect of co-applied drug on AS1-induced attraction to noxious heat (larval zebrafish [1]) | temperature choice, drug alone (larval zebrafish [1]) | effect of co-applied drug on AS1-induced preference for the dark (larval zebrafish [2]) | light/dark preference, drug alone (larval zebrafish [2]) | effect of co-applied drug on AS1-induced attraction to AITC (larval zebrafish [3]) | AITC aversion, drug alone (larval zebrafish [3]) | inherent attractiveness of chemical deposited into trough (larval zebrafish [4]) |
| --- | --- | --- | --- | --- | --- | --- | --- | --- |
| CCN1CCCC1CNC(=O)c1cc(S(N)(=O)=O)ccc1OC (stereo not drawn) [sulpiride] | had no effect | had no effect | had no effect | had no effect | had no effect | had no effect | had no effect | – |
| C=CCN1CCc2c(cc(O)c(O)c2Cl)C(c2ccccc2)C1 (stereo not drawn) [SKF82958] | reduced the swimming velocity of AS1-treated zebrafish in the 28.5 °C zone | significantly attenuated the amount of time AS1-treated fish spent at 37.5 °C | slight potentiation of preference for the 28.5 °C side | reversed dark preference in fish that were treated with AS1 | slight decrease in the proportion of fish found in the light by itself | did block AS1-induced preference to this chemical irritant | had little effect upon aversion to AITC | mildly attractive |
| sumanirole maleate | – | had no effect | had no effect | had no effect | had no effect | did seem to attenuate AS1-mediated attraction to AITC, but only at higher concentrations | had little effect alone in the chemical aversion assay | – |
| C=CCN1CC[C@]23c4c5ccc(O)c4O[C@H]2C(=O)CC[C@@]3(O)[C@H]1C5 [Naloxone, naloxone] | – | significantly chose the 37.5 °C side | significantly chose the 28.5 °C side of the arena | significantly preferred the dark, regardless of whether 1 μM naloxone was applied | significantly chose the light side of the arena | did not reverse AS1-induced attraction towards AITC | did not affect AITC avoidance | – |

Source: patent publication US20250177366A1, “COMPOSITIONS AND METHODS FOR ALLEVIATING PAIN AND REDUCING ADVERSIVENESS OF STIMULI” (UNIVERSITY OF WASHINGTON, priority 2021, published 2025)
